Measured values published in US20230219957A1, “SMALL MOLECULE CB002-ANALOGES RESTORE THE P53 PATHWAY AND TARGET S-PHASE CHECKPOINT” (Brown University, priority 2020, published 2023).

What was measured:
SW480 cells = assay: Clonogenic (colony formation) assay; format: cell-based, human; conditions: SW480, versus CB002
Procedure: Colony formation assay. Cells were seeded in 6-well plates at a density of 500 cells per well. Cells were treated with CB002 small molecules for twenty-four hours. Then, cells were cultured in complete drug-free media for fifteen days. During the fifteen days, the media was changed every two-three days. At the end of the two weeks, the media was removed. Wells were washed twice with Dulbecco's phosphate-buffered saline (PBS). The colonies were fixed and stained with 10% methanol and 0.25% crystal violet (Sigma-Aldrich, St. Louis, Mo., USA) for thirty minutes. Wells were then carefully washed with distilled, deionized water and allowed to dry.

SW480 tumor cells = assay: Apoptosis markers (cleaved PARP immunoblot, Cyt-C immunofluorescence); format: cell-based, human
Procedure: Knockdown expression of p73, DR5, ATG5, or FADD using siRNA. A total of 1×10^5 cells/well were plated per well in a 12-well plate in medium with 10% FBS without antibiotic. Forward transfection of p73 siRNA (s14319, Ambion®, Ambion Inc., Austin, Tex., USA), DR5 (sc-40237, Santa Cruz Biotechnology), atg5 (137766, Ambion®, Ambion Inc., Austin, Tex., USA), or FADD (S16706, Ambion®, Ambion Inc., Austin, Tex., USA) was performed using the Lipofectamine® RNAiMAX Transfection Reagent (Life Technologies) and incubated for forty-eight hours before treatment, e.g., before drug treatments.
Immunoblotting (additional method). After treatment, floating cells were collected, and adherent cells were trypsinized, washed with phosphate-buffered saline, and lysed with RIPA buffer (Sigma-Aldrich, St. Louis, Mo., USA) for thirty minutes to one hour at 4° C. Protein lysates were pelleted. The supernatant was collected. Total protein per sample was determined using a Pierce™ BCA Protein Assay Kit (Thermo Fisher Scientific, Waltham, Mass., USA). Proteins were denatured using 1× NuPAGE® LDS sample buffer (Thermo Fisher Scientific, Waltham, Mass., USA) and reduced with 2-mercaptoethanol (Sigma-Aldrich, St. Louis, Mo., USA). Protein lysates were boiled for fifteen min at 95° C. After protein normalization, samples were loaded into NuPAGE™ Novex™ 4-12% Bis-Tris Protein Gels (Thermo Fisher Scientific, Waltham, Mass., USA). Gel electrophoresis was performed with NuPAGE™ MES SDS Running Buffer. […] Signal was detected using a chemiluminescent detection kit, followed by autoradiography. […]
Immunohistochemistry. […] Organoid viability imaging was determined by CellTrace™ Calcein Green (#C34852, Thermo Fisher Scientific, Waltham, Mass., USA), Ethidium Homodimer-1 (#E1169, Thermo Fisher Scientific, Waltham, Mass., USA), Ki67 incubated at 37° C. for one hour then washed with phosphate-buffered saline and imaged. […]

[1] = system: normal human WI38 lung fibroblast cells; assay: Propidium iodide Sub-G1 analysis in normal cells; format: cell-based; conditions: forty-eight hours
Procedure: Apoptosis assay. Apoptotic cells were quantified by sub-G1 analysis. Cells were seeded at a density of 2.5×10^5to 5×10^5in a 6-well plate and treated forty-eight to seventy-two hours. After treatment, adherent cells were trypsinized and collected along with floating cells, washed with phosphate-buffered saline, and fixed in 70% ethanol. Cells were then incubated in a phosphate-citric acid buffer (0.2M Na2HPO4+0.1M citric acid, pH 7.8) at room temperature for five minutes, spun down, and resuspended for staining with 50 μg/mL propidium iodide (PI) in the presence of 250 μg/mL pancreatic ribonuclease (RNase A). Sub-G1 analyses were performed using an Epics Elite Epics flow cytometer (Coulter-Beckman). Propidium iodide and BrdU flow cytometry assay. Cells were seeded at a density of 5×10^5 in a 6-well plate and treated for forty-eight to seventy-two hours. After treatment, floating cells were collected, and adherent cells were trypsinized, pelleted, washed with phosphate-buffered saline, and fixed in 70% ethanol overnight. For propidium iodide (PI) based Sub-G1 apoptosis analysis, cells were spun down after fixation and resuspended in phosphate-citric acid buffer (0.2M Na2HPO4+0.1M Citric Acid, pH 7.8) at room temperature for five minutes. […] Samples were analyzed on an Epics Elite Epics flow cytometer (Coulter-Beckman).

## Cn1c(=O)c2[nH]c(Nc3cccc(C(F)(F)F)c3)nc2n(C)c1=O [CB002-analog #4]
SW480 cells
  cytotoxicity by clonogenic assay: more cytotoxic in vitro than CB002
SW480 tumor cells; SW480
  cleaved-PARP: increases cleaved-PARP
SW480 tumor cells; SW480, forty-eight hours
  cytochrome C release from the mitochondria to the cytosol: cytochrome C release from the mitochondria to the cytosol
SW480 tumor cells; SW480, p73 siRNA
  PARP cleavage under p73 knockdown: PARP cleavage occurred despite effective p73 knockdown
[1]
  sub-G1 in normal cells: does not increase sub-G1
